Experimental data from publication PMC3938390 (Biochemistry, 2013).
Where two headings read alike, the source gives them in different places.

Experiments:
CB1 = CB1 (Homo sapiens, UniProt P21554); type: binding
CB1^WT = CB1^WT (Homo sapiens, UniProt P21554); conditions: [3H]CP55940 binding
C98A,C107ACB1^WT = C98A,C107ACB1^WT (Homo sapiens, UniProt P21554, C107A/C98A); conditions: [3H]CP55940 binding, N-terminal C98-C107 disulfide removed by mutation
[1] = CB1^WT treated with 10 mM DTT for 20 min prior to assay

CB1^WT, sequence (P21554 whole entry): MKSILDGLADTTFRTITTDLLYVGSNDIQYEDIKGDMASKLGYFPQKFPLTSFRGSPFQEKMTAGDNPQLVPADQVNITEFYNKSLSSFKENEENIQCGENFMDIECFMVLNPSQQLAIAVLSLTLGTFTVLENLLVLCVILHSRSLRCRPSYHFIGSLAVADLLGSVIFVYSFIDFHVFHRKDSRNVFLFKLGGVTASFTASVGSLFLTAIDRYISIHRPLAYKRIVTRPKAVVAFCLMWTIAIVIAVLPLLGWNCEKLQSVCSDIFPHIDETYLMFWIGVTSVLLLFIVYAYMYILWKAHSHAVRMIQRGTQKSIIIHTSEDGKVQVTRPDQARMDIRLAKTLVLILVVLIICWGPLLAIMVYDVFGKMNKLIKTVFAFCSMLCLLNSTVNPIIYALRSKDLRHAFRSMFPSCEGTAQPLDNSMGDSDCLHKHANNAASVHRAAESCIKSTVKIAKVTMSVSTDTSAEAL
CB1, sequence (P21554 whole entry): as above
C98A,C107ACB1^WT, sequence (P21554 whole entry C98A/C107A): as the sequence (P21554 whole entry) above, with C98A, C107A counted along it

SMILES: CCCCCCC(C)(C)c1ccc([C@@H]2C[C@H](O)CC[C@H]2CCCO)c(O)c1 [CP55940, (-)-cis-3-[2-hydroxy-4-(1,1-dimethyl-heptyl)phenyl]-trans-4-(3-hydroxypropyl)cyclohexanol]
- cooperativity factor α between orthosteric ligand and DTT (CB1): 0.69 ± 0.08

SMILES: CCc1c(C(=O)NCCc2ccc(N3CCCCC3)cc2)[nH]c2ccc(Cl)cc12 [Org 27569]
- allosteric cooperativity factor α for agonist binding (CB1^WT; [1]): 6.8 ± 0.3
- allosteric cooperativity factor α for agonist binding (CB1^WT; untreated CB1^WT): 4.9 ± 0.4
- allosteric cooperativity factor α for agonist binding (C98A,C107ACB1^WT): 7.8 ± 0.5

SMILES: O=C(Nc1ccc(Cl)cc1)Nc1cccc(-c2cccc(N3CCCC3)n2)c1 [PSNCBAM-1, 1-(4-chlorophenyl)-3-[3-(6-pyrrolidin-1-ylpyridin-2-yl)phenyl]urea]
- allosteric cooperativity factor α for agonist binding (CB1^WT; [1]): 5.9 ± 0.3
- allosteric cooperativity factor α for agonist binding (CB1^WT; untreated CB1^WT): 4.2 ± 0.2
